# Results published in BindingDB's records for patent US20240025922 (Merck Patent, 2024).
# Molecular target: Mitogen-activated protein kinase kinase kinase kinase 1 (Homo sapiens, UniProt Q92918)
# Assay: HPK1 Kinase Assay (Biochemical Assay)
# Method: A recombinant fusion protein consisting of full-length human HPK1 (MAP4K1) with an N-terminal Glutatione S-transferase (GST) tag was produced in insect cells Sf21 using the baculovirus expression system. GST-HPK1 protein was purified from cell lysates by glutathione Sepharose affinity chromatography. The assay is run in three continuous steps: 1) the HPK1 enzymatic kinase reaction, 2) an ATP depletion, and 3) the ADP detection, the steps 2 and 3 are performed with ADP-Glo Kinase Assay kit from Promega (V9101). […] After 120 minutes, the reaction was stopped by adding 5 μL of ADP-Glo reagent (Promega, V9101) and incubating for 40 min. in the dark at 23 C. To determine the level of ADP, 10 μl ADP-Glo Detection solution was added and incubated for 1 hour at 23 C. in the dark.
# Mitogen-activated protein kinase kinase kinase kinase 1, sequence (Q92918 whole entry): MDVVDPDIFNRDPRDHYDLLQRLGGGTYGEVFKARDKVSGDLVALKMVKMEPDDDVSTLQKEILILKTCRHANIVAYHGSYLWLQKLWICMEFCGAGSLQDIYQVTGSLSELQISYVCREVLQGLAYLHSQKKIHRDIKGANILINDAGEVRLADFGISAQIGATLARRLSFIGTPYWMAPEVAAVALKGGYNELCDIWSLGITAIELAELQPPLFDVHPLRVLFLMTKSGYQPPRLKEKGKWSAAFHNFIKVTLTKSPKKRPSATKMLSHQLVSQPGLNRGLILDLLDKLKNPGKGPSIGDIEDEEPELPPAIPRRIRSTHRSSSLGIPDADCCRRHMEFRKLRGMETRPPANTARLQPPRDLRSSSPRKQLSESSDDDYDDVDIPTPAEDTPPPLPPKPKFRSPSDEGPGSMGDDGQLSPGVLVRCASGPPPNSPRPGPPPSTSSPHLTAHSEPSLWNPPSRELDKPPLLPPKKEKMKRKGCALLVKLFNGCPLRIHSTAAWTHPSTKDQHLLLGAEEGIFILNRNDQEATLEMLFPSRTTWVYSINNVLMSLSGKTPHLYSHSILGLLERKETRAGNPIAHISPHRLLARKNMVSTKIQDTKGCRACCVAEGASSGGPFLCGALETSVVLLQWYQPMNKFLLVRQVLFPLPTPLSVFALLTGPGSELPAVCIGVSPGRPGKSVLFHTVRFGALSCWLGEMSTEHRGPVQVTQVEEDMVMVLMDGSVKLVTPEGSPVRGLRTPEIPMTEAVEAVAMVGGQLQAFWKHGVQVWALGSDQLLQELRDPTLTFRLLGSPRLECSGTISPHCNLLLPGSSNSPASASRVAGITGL
row,IC50,SMILES
1,> 1 µM,"Cc1c(N2CCc3cnc(Nc4cc5n(n4)CC(=O)N(C(C)C)CC5)nc3C2)cnc2c1NCCO2 [US20240025922, Example 89]"
2,< 0.1 µM,"COc1cccc(F)c1N1CCc2cnc(Nc3cnc4c(c3)CN(C)CC4)nc2C1 [US20240025922, Example 120]"
3,> 1 µM,"Cc1cc(Nc2cc3c(cn2)CCN(c2cnc4c(c2Cl)NCCO4)C3)nn1CC(=O)N(C)C [US20240025922, Example 131]"
